Assay results reported in US20050143453A1, “Selective preventing and therapeutic agents for progressive lesion after organic damage” (priority 2000, published 2005).

Experiments:
[1] = tested on: kidney of chronic puromycin nephrosis rat; assay: Puromycin chronic nephrosis model in rat (CPN, Test Example 4); type: in vivo
Experimental: Evaluation Using Puromycin Chronic Nephrosis Model in Rat
Male SD rat of 8 weeks age of about 250 g was used and […] of puromycin were intravenously administered once according to a method of Diamond, et al. (J. R. Diamond, I. Pesek, S. Ruggeri, M. J. Karnovsky: Essential fatty acid deficiency during acute puromycin nephrosis ameliorates late renal injury. Am. J. Physiol, 257: F798˜F807, 1989). There was induced a chronic puromycin nephrosis rat where albuminuria increased from about tenth to twelfth week. After eighth week from administration of puromycin, each of compound (9-1) and compound (6-1) was subcutaneously injected at the dose of 30 mg/kg/day everyday until the 22nd week.
As a functional evaluation of kidney, albumin in urine was measured every week using a kit for the measurement of albumin. On the 22nd week, the rat was killed and anatomized to observe functional and morphological changes of kidney.

[2] = tested on: obstruction-released kidney of male SD rats; assay: Obstruction release model after complete obstruction of unilateral ureter for 14 days (UUO/Release, Test Example 3); type: in vivo, rat; parameters: key to Suppressive Effect to Glomerular Lesion / Suppressive Effect to Lesion of Tubulointerstitial Tissue: ∘: available; Δ: somewhat available; x: not available
Experimental: Obstruction Release Model after Complete Obstruction of Unilateral Ureter for 14 Days
Experimental models were prepared by a method devised and established by Ishibashi (Michio Ishibashi, et al.: The Japanese Journal of Nephrology, 42: 248, 2000) using male SD rats of 8-9 weeks age and about 280 g. Thus, the rat was laparotomized under anesthetization with ether and ureter was ligated with 7-0 Nylon at the height of the margin of lower pole of left kidney to close the abdomen. On the 14th day after obstruction, the obstruction was released and urinary passage was reconstructed using a cuff. Thus, after 14 days, the part of ligated obstructed ureter was resected, a polyethylene tube of 25 gages (manufactured by Nippon Sherwood) was used as a cuff and inserted into and retained at the lumen from the cut end of the lower normal ureter, then the cuff was also retained in the expanded upper ureter and each of them was ligated and fixed by 7-0 Nylon to reconstruct the urinary passage. At the same time, the right kidney at the opposite side was excised. After the release of the obstruction, body weight was measured, blood was collected on the 2nd day, 5th day and 7th day from the release to measure serum creatinine, then the rat was sacrificed under anesthetization and the left obstruction-released kidney was excised. With regard to the excised kidney, there were carried out measurement of weight of the kidney and pathological test for the kidney.
An in vivo biological test was carried out for the γ-lactone derivatives according to the present invention using the above models. With regard to the test compound, bulk powder of the test compound was dissolved in an aseptic physiological saline together with gum arabic and the final concentration of gum arabic was 5%(vol/vol). The concentration of the test compound 30 mg/ml was suspended in 5% gum arabic-saline solution. The preparation was subcutaneously injected at the dose of 30 mg/kg every day throughout the experiment. With regard to the test compound, there were used (9-1), (4-2) and (7-3) as the compounds of group I suppressing the SPFC production by allo-MLC stimulation, i.e., the compounds which selectively suppress the induction of effector macrophage in the presence of allo-MLC while there was used (3-2) as the compound of group II suppressing the SPFC production by LPS stimulation, i.e., the compounds which selectively suppress the induction of effector macrophage in the presence of LPS.
In the Table, “functional classification” of the compound means the above group I, group II and group III. “Compound” means the compound bearing each of the above-mentioned compound numbers. The fact whether glomerular lesion was suppressed was judged by the ameriolation of the lesions such as thickness of wall of Bowman's capsule, hyperplasia of mesangial cells and glomerular sclerosis. The fact whether lesion of tubulointerstitial tissue was suppressed was judged by the ameriolation of the lesions such as thickness of basement membrane of tubules, cellular infiltration and fibrosis of interstitial tissue. In the table, “control” is the result when the same test as above was carried out using 5% gum arabic only which is a solvent.
In order to further confirm whether the preventive and therapeutic effect of the γ-lactone derivatives of the present invention to the target cell damage is selective, (7-3) of the group I and (6-1) of the group II were used as test compounds and they were subcutaneously injected at the dose of 30 mg/kg every day and compared with the control group. With regard to the control group, only 5% gum arabic which is a solvent was used and the same test as above was carried out.

[3] = 30 mg/kg/day subcutaneously from 8th to 22nd week after puromycin
[4] = 30 mg/kg subcutaneously every day, Table 2
[5] = Experimental Model of Rat: UUO/Release

## CCOC(=O)C(=O)CCC(=O)O [(9-1), ethyl 2-ketoglutarate]
[1]; 30 mg/kg/day subcutaneously
  suppression of lesion of tubulointerstitial tissues: well suppressed
[1]; [3]
  Rate of Cases where Glomerular Lesion was Suppressed: 50% (3/6)
  Rate of Cases where Lesion of Tubulointerstitial Tissue was Suppressed: 83% (5/6)
[2]; 30 mg/kg subcutaneously every day
  selectivity of the suppressive effect on renal lesions: selective suppressive effect
[2]; [4]
  Rate of Cases where Glomerular Lesion was Suppressed: 0% (0/4)
  Rate of Cases where tubulointerstitial Lesion was Suppressed: 100% (4/4)
  Serum Creatinine level (mg/dl) on the 7th Day from Release of Obstruction: 2.0 ± 0.2 mg/dL
  Weight of Kidney (g) on the 7th Day from Release of Obstruction: 3.01 ± 0.56 g
[2]; [5]
  Suppressive Effect to Glomerular Lesion: x
  Suppressive Effect to Lesion of Tubulointerstitial Tissue: ∘
